# Source: patent US7998965B2, “Glutamate aggrecanase inhibitors” (Wyeth LLC, priority 2005, dated 2011)
# Where two headings read alike, the source gives them in different places.
# Legend:
# [1] = target: T1, purified recombinant human Aggrecanase-1 (rAgg1) (Homo sapiens, UniProt O75173); assay: In vitro fluorescence screen for Aggrecanase-1 inhibitors; assay type: biochemical; conditions: for IC50: read-out: Agg1 IC50
# T1 sequence (O75173 213-837): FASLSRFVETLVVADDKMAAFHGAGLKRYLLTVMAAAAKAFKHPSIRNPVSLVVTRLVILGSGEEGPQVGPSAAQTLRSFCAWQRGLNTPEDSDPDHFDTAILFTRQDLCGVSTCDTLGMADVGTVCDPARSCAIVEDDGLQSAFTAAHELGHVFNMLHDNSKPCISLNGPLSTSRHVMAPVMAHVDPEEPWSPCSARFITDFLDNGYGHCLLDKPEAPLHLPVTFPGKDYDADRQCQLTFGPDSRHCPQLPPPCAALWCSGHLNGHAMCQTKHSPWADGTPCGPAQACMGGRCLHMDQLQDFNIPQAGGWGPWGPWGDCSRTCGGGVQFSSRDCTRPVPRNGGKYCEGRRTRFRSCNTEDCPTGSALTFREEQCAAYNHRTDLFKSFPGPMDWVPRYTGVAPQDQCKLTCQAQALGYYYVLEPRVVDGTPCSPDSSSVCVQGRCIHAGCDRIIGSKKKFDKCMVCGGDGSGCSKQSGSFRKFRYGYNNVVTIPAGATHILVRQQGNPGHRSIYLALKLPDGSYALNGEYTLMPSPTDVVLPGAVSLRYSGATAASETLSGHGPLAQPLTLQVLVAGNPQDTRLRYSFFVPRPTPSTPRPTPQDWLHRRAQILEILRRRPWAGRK
# [2] = target: T2, purified recombinant human Aggrecanase-2 (Ag2t-Phe628-Strep) (Homo sapiens, UniProt Q9UNA0); assay: In vitro fluorescence screen for Aggrecanase-2 inhibitors; assay type: biochemical; conditions: for IC50: read-out: Agg 2 IC50
# T2 construct: the form used is denoted as Ag2t-Phe628-Strep (MW=41,737)
# T2 sequence (Q9UNA0 262-628): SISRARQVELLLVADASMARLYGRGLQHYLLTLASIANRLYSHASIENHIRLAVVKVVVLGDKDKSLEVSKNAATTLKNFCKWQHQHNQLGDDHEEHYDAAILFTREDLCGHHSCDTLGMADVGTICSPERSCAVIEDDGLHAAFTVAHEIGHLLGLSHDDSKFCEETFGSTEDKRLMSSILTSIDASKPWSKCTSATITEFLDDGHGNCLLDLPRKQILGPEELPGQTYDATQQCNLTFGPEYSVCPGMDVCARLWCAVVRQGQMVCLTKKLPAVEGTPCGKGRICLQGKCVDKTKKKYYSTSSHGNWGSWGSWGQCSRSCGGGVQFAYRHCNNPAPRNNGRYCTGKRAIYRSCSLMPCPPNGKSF
SMILES,IC50 ([1]; Table 2),IC50 ([2]; Table 2),IC50 ([1]; Table 3),IC50 ([2]; Table 3),further results
"O=C(O)CC[C@H](NC(=O)c1ccc2c(c1)Cc1ccccc1-2)C(=O)NC12CC3CC(CC(C3)C1)C2 [Example 8AAAAA, N^1-1-adamantyl-N^2-(9H-fluoren-2-ylcarbonyl)-L-α-glutamine]",372 nM,410 nM,–,–,–
"O=C(O)CC[C@H](NC(=O)c1ccc(-c2ccccc2)cc1)C(=O)NCC12CC3CC(CC(C3)C1)C2 [Example 8AAAAAA, N-(1-adamantylmethyl)-N^2-(biphenyl-4-ylcarbonyl)-L-α-glutamine]",534 nM,1760 nM,–,–,–
"CC(C)(Cc1ccc(Cl)cc1)NC(=O)[C@H](CCC(=O)O)NC(=O)c1ccc(-c2ccc(F)cc2F)cc1 [Example 8AAAAAAA, N-[2-(4-chlorophenyl)-1,1-dimethylethyl]-N^2-[(2′,4′-difluorobiphenyl-4-yl)carbonyl]-L-α-glutamine]",–,–,80 nM,550 nM,–
"O=C(O)CC[C@H](NC(=O)C1c2ccccc2-c2ccccc21)C(=O)NC12CC3CC(CC(C3)C1)C2 [Example 8BBBBB, N^1-1-adamantyl-N^2-(9H-fluoren-9-ylcarbonyl)-L-α-glutamine]",> 17000 nM,20900 nM,–,–,–
"O=C(O)CC[C@H](NC(=O)c1ccc2c(c1)Cc1ccccc1-2)C(=O)N[C@H](CO)Cc1ccccc1 [Example 8BBBBBB, N-[(1S)-1-benzyl-2-hydroxyethyl]-N^2-(9H-fluoren-2-ylcarbonyl)-L-α-glutamine]",470 nM,2670 nM,–,–,–
"CC(C)(Cc1ccc(Cl)cc1)NC(=O)[C@H](CCC(=O)O)NC(=O)c1ccc(-c2cc(F)ccc2F)cc1 [Example 8BBBBBBB, N-[2-(4-chlorophenyl)-1,1-dimethylethyl]-N^2-[(2′,5′-difluorobiphenyl-4-yl)carbonyl]-L-α-glutamine]",–,–,110 nM,1000 nM,–
"CC(C)(Cc1ccc(F)cc1)NC(=O)[C@H](CCC(=O)O)NC(=O)c1ccc(-c2ccc3c(c2)OCC3)cc1 [Example 8BBBBBBBB, N^2-[4-(2,3-dihydro-1-benzofuran-6-yl)benzoyl]-N-[2-(4-fluorophenyl)-1,1-dimethylethyl]-L-α-glutamine]",–,–,300 nM,200 to 600 nM,–
"CC(C)(Cc1ccc(F)cc1)NC(=O)[C@H](CCC(=O)O)NC(=O)c1ccc(-c2cccs2)s1 [Example 8BBBBBBBBB, N^2-(2,2′-bithien-5-ylcarbonyl)-N-[2-(4-fluorophenyl)-1,1-dimethylethyl]-L-α-glutamine]",–,–,< 30 nM,100 to 300 nM,"Ki ([1]; Table 3, read-out: Ki Agg1): 11.5 nM; Ki ([2]; Table 3, read-out: Ki Agg2): 681 nM"
"CC(C)(Cc1ccccc1)NC(=O)[C@H](CCC(=O)O)NC(=O)c1sccc1-c1ccccc1 [Example 8BBBBBBBBBB, N-(1,1-dimethyl-2-phenylethyl)-N^2-[(3-phenyl-2-thienyl)carbonyl]-L-α-glutamine]",–,–,22000 nM,> 200000 nM,–
"CN(CCc1ccccc1)C(=O)[C@H](CCC(=O)O)NC(=O)c1ccc(-c2ccccc2)cc1 [Example 8CCCCCC, N^2-(biphenyl-4-ylcarbonyl)-N-methyl-N-(2-phenylethyl)-L-α-glutamine]",2400 nM,> 22000 nM,–,–,–
"CC(C)(Cc1ccc(Cl)cc1)NC(=O)[C@H](CCC(=O)O)NC(=O)c1ccc(-c2c(F)cccc2F)cc1 [Example 8CCCCCCC, N-[2-(4-chlorophenyl)-1,1-dimethylethyl]-N^2-[(2′,6′-difluorobiphenyl-4-yl)carbonyl]-L-α-glutamine]",–,–,50 nM,680 nM,–
"Cc1cccc(CNC(=O)[C@H](CCC(=O)O)NC(=O)c2ccc3c(c2)C(=O)c2ccccc2-3)c1 [Example 8DDDDD, N^1-(3-methylbenzyl)-N^2-[(9-oxo-9H-fluoren-2-yl)carbonyl]-L-α-glutamine]",315 nM,1100 nM,–,–,–
"CN(CCc1ccccc1)C(=O)[C@H](CCC(=O)O)NC(=O)c1ccc2c(c1)Cc1ccccc1-2 [Example 8DDDDDD, N^2-(9H-fluoren-2-ylcarbonyl)-N-methyl-N-(2-phenylethyl)-L-α-glutamine]",2400 nM,> 22000 nM,–,–,–
"CC(C)(Cc1ccc(Cl)cc1)NC(=O)[C@H](CCC(=O)O)NC(=O)c1ccc(-c2cc(F)cc(F)c2)cc1 [Example 8DDDDDDD, N-[2-(4-chlorophenyl)-1,1-dimethylethyl]-N^2-[(3′,5′-difluorobiphenyl-4-yl)carbonyl]-L-α-glutamine]",–,–,< 30 nM,220 nM,–
"O=C(O)CC[C@H](NC(=O)c1ccc(-c2ccccc2)cc1)C(=O)NCCc1ccccc1 [Example 8FFF, N^2-(1,1′-biphenyl-4-ylcarbonyl)-N^1-(2-phenylethyl)-L-α-glutamine]",–,–,–,–,IC50 ([1]; Table 1): 200 nM; IC50 ([2]; Table 1): 1000 nM

# Further lines, with some results ahead:
IC50 ([1]; Table 2),IC50 ([2]; Table 2),IC50 ([1]; Table 3),IC50 ([2]; Table 3),SMILES,further results
> 50000 nM,> 200000 nM,–,–,"Cc1cccc(CNC(=O)[C@H](CCC(=O)O)NC(=O)C2c3ccccc3-c3ccccc32)c1 [Example 8EEEEE, N^2-(9H-fluoren-9-ylcarbonyl)-N^1-(3-methylbenzyl)-L-α-glutamine]",–
–,–,37 nM,510 nM,"CC(C)(Cc1ccc(Cl)cc1)NC(=O)[C@H](CCC(=O)O)NC(=O)c1ccc(-c2cccc(F)c2F)cc1 [Example 8EEEEEEE, N-[2-(4-chlorophenyl)-1,1-dimethylethyl]-N^2-[(2′,3′-difluorobiphenyl-4-yl)carbonyl]-L-α-glutamine]",–
3900 nM,18100 nM,–,–,"CCCCN(C)C(=O)[C@H](CCC(=O)O)NC(=O)c1ccc2c(c1)Cc1ccccc1-2 [Example 8FFFFFF, N-butyl-N^2-(9H-fluoren-2-ylcarbonyl)-N-methyl-L-α-glutamine]",–
–,–,200 nM,4200 nM,"CC(C)(Cc1ccccc1)NC(=O)[C@H](CCC(=O)O)NC(=O)c1ccc(-c2cncnc2)cc1 [Example 8FFFFFFF, N-(1,1-dimethyl-2-phenylethyl)-N^2-(4-pyrimidin-5-ylbenzoyl)-L-α-glutamine]",–
–,–,60 nM,160 nM,"CC(C)(Cc1ccccc1)NC(=O)[C@H](CCC(=O)O)NC(=O)c1ccc(-c2ccc(F)c(F)c2)cc1 [Example 8GGGGGGG, N^2-[(3′,4′-difluorobiphenyl-4-yl)carbonyl]-N-(1,1-dimethyl-2-phenylethyl)-L-α-glutamine]",–
38 nM,46 nM,–,–,"CC(C)(Cc1ccc(F)cc1)NC(=O)[C@H](CCC(=O)O)NC(=O)c1ccc(-c2ccc3c(c2)OCO3)cc1 [Example 8HHHHHH, N^2-[4-(1,3-benzodioxol-5-yl)benzoyl]-N-[2-(4-fluorophenyl)-1,1-dimethylethyl]-L-α-glutamine]",–
–,–,50 nM,180 nM,"CC(C)(Cc1ccccc1)NC(=O)[C@H](CCC(=O)O)NC(=O)c1ccc(-c2cc(F)cc(F)c2)cc1 [Example 8HHHHHHH, N^2-[(3′,5′-difluorobiphenyl-4-yl)carbonyl]-N-(1,1-dimethyl-2-phenylethyl)-L-α-glutamine]",–
813 nM,1900 nM,–,–,"O=C(O)CC[C@H](NC(=O)c1ccc2c(c1)C(=O)c1ccccc1-2)C(=O)NCc1ccccc1 [Example 8IIIII, N^1-benzyl-N^2-[(9-oxo-9H-fluoren-2-yl)carbonyl]-L-α-glutamine]",–
2900 nM,11900 nM,–,–,"COc1ccc(CCN(C)C(=O)[C@H](CCC(=O)O)NC(=O)c2ccc3c(c2)Cc2ccccc2-3)cc1OC [Example 8IIIIII, N-[2-(3,4-dimethoxyphenyl)ethyl]-N^2-(9H-fluoren-2-ylcarbonyl)-N-methyl-L-α-glutamine]",–
–,–,< 30 nM,42 nM,"CC(C)(Cc1ccc(Cl)s1)NC(=O)[C@H](CCC(=O)O)NC(=O)c1ccc(-c2ccc(F)c(F)c2)cc1 [Example 8IIIIIII, N-[2-(5-chloro-2-thienyl)-1,1-dimethylethyl]-N^2-[(3′,4′-difluorobiphenyl-4-yl)carbonyl]-L-α-glutamine]",–
191 nM,1100 nM,–,–,"O=C(O)CC[C@H](NC(=O)c1ccc2c(c1)Cc1ccccc1-2)C(=O)NCc1ccccc1 [Example 8JJJJJ, N^1-benzyl-N^2-(9H-fluoren-2-ylcarbonyl)-L-α-glutamine]",–
300 nM,943 nM,–,–,"C[C@@H](CNC(=O)[C@H](CCC(=O)O)NC(=O)c1ccc2c(c1)Cc1ccccc1-2)c1ccccc1 [Example 8JJJJJJ, N^2-(9H-fluoren-2-ylcarbonyl)-N-[(2R)-2-phenylpropyl]-L-α-glutamine]",–
–,–,< 30 nM,53 nM,"CC(C)(Cc1ccc(Cl)s1)NC(=O)[C@H](CCC(=O)O)NC(=O)c1ccc(-c2ccccc2)cc1 [Example 8JJJJJJJ, N^2-(biphenyl-4-ylcarbonyl)-N-[2-(5-chloro-2-thienyl)-1,1-dimethylethyl]-L-α-glutamine]",–
